Assay results: publication PMC12117998, “First Steps toward the Design of Peptides that Influence the Intracellular Palmitoylation Machinery” (Chembiochem, 2025)
No end group written: not given here.

How the values were obtained:
mEGFP‐HRas = test: Fluorescence microscopy of mEGFP‐HRas localization; assay type: cell-based; settings: HeLa mEGFP‐HRas cells, doxycycline-induced, 100 μM peptide, 6 h, n = 3 (Figure 8A)
Source text: mEGFP‐HRas was amplified from a plasmid gifted from Karel Svoboda^[ [69] ^] (Addgene plasmid # 18662) using the primers 5′‐gcgGGTACCgccaccatggtgagcaagg‐3′ and 5′‐gcgGCGGCCGCtcaggagagcacacactt‐3′. KpnI and NotI restriction sites (capital letter) were used and the construct was cloned into the pcDNA5 FRT‐TO vector to generate an inducible T‐REx‐HeLa cell line using the Flp‐In T‐REx System (Invitrogen). The plasmid was verified by sequencing. The construct was co‐transfected together with the pOG44 vector using the FuGENE HD transfection reagent (Promega). Positive clones were selected with DMEM medium supplemented with 10% FCS, 500 μg ml^−1 penicillin/streptomycin 100 μg ml^−1 hygromycin and 10 μg ml^−1 blasticidin and verified by fluorescence microscopy and immunoblot.
A total of 35,000 HeLa mEGFP‐HRas cells were seeded into an 8‐well plate. Cells were induced with […] ml^−1 doxycycline and incubated for around 15 h under standard growth conditions. Afterward, cells were treated for 6 h with 100 μM peptide diluted in serum‐free medium. And, 10 min prior to the end of the incubation time, the Hoechst 33342 nuclear dye was added. Cells were washed with serum‐free media. Finally, complete medium was added and cells were imaged on the UltraView VoX Spinning Disk Confocal Microscope (Perkin Elmer) on a 60X oil objective at 37 °C and 5% CO2. Images were cropped and processed using Fiji.

HFF‐1 cells = test: Cellular uptake by flow cytometry; assay type: cell-based, human; settings: HFF‐1, 30 min, 5 μM CF‐labeled peptides, serum-free medium, 37 °C, n ≥ 3 (Figure 3F)
Description: HeLa (90,000), MDA‐MB‐231 (120,000), and HFF‐1 (125,000) cells were seeded into a 24‐well plate. Cells were treated with the desired concentration of CF‐labeled peptide diluted in the appropriate serum‐free medium for 30 min at 37 °C and 5% CO2. Afterward, cells were washed once with PBS, detached from the plate using indicator‐free trypsin/EDTA and resuspended in indicator‐free culture medium. The cell mixture was measured on the Guava easyCyte flow cytometer (Merck) using the GRN‐B (520/30) detector.

HeLa cells = test: Live‐cell fluorescence imaging of peptide uptake; assay type: cell-based
Description: HeLa (40,000), MDA‐MB‐231 (30,000), or HFF1 (55,000) cells were seeded into an 8‐well ibidi. Cells were treated for 30 min with 5 μM of CF‐labeled peptide diluted in the appropriate serum‐free media. The cell nuclei were stained with the Hoechst 33342 nuclear dye for the last 10 min of the total incubation time. Afterward, cells were washed three to four times using serum‐free medium and finally, medium containing FBS was added for the microscopy. Live fluorescence microscopy analyses were performed on the LSM 980 with Airyscan 2 Inverse Confocal Laser Scanning Microscope (Carl Zeiss) on a 63X Plan‐Apochromat oil objective (NA 1.4, Zeiss) at 37 °C and 5% CO2 or on the BZ‐X810 (Keyence) using a 60X Plan‐Apochromat oil objective (NA 1.4, Keyence). Images were cropped and processed using Fiji.
Hela cells (15,000) were seeded into a 96-well plate. Cells were treated with suitable peptide concentrations diluted in the corresponding serum-free culture medium. After 1 h peptide incubation under standard growth conditions, the positive control was either directly treated with lysis solution or the supernatant was exchanged for serum-free culture medium and the plate was incubated for further 5 h under growing conditions. The CytoTox-ONE™ Reagent was added and incubated at RT for 10 minutes. Finally, the Stop Solution was added and the fluorescence was measured at 595 nm (λex = 550 nm) on an infinite M200 plate reader (Tecan) and normalized to the positive control cells.
Red blood cells (RBCs) were washed three times in PBS by centrifug ing at 4 °C and 3,000 x g for 5 min and diluted to 5% in PBS. The desired peptide concentrations diluted in PBS were added into a 96-well plate. Next, 5% RBCs in PBS were added into the wells and incubated for 24 h at 37 °C and 5% CO2. As a positive control, RBCs were mixed with 10% Triton X-100 in PBS. […] Lastly, the absorption (λ=560 nm) was measured on the infinite M200 plate reader (Tecan). For the evaluation, the measured absorption of the Triton-X-100 treatment was set to a hemolysis rate […]

MCF‐10 A breast spheroid = test: Confocal time‐lapse imaging of spheroids; assay type: cell-based, human; settings: 10‐day‐old MCF‐10 A spheroids, 10 μM CF‐labeled peptide, imaged every 45 s for 20 min, n ≥ 2 (Figure 7)
Description: Spheroids from single MCF10‐A cells were generated for 10 days as described in ref. [66]. For further analyses, spheroids were isolated from EHS matrix through incubation in 2 mL ice‐cold cell recovery solution (BD Biosciences) for 30 min (4 °C). Next, spheroids were washed with fresh EGF‐free medium and individually picked under a stereo microscope for seeding onto 35 mm cell culture dishes with microscopic glass bottoms (Cover Slip, 24 × 24 mm, #1.5 HP, Menzel‐Gläser). Spheroids adhered to glass substrates for 15 min (RT) and were subsequently covered with 0.9 mL fresh EGF‐free growth medium.
Live‐cell imaging was performed at 37 °C and 5% CO2 (cell incubator XL, Zeiss, Germany) with an inverse confocal laser scanning microscope (LSM880 with Airyscan detector) that used a 40x LD C‐Apochromat water immersion objective (NA 1.1, Zeiss). Before addition of peptides, control images were taken. Subsequently, peptide was added to a final concentration of 10 μM and spheroids immediately imaged every 45 s for 20 min. The observed plane was at the equatorial plane of a spheroid, where the diameter was largest. Images were taken with Fast Airyscan and subsequent processing using the ZEN 2.3 black software (Zeiss). Z‐stacks were taken right after the time series in 1 μm steps with the same microscopic settings.

GLRKRLRKFRNKKMDHHCPW-NH2 [DC‐2, CPP sC18* fused to the DHHC motif derived from ZDHHC2/3/6/7/15/16/20]
HRas localization (mEGFP‐HRas): altered HRas pattern | cellular uptake (in words) (HFF‐1 cells): internalized to a higher extent compared to DC‐4 | time‐lapse cellular uptake (HeLa cells; 5 μM CF-DC-2, imaged every 10 sec for 30 min (Video 1)): rapid cellular uptake | intracellular uptake pattern (HeLa cells; 30 min, 5 μM CF‐labeled peptides, confocal laser scanning microscopy (Figure 3G)): diffuse cytosolic pattern | infiltration of basement membrane (BM)‐covered spheroids (MCF‐10 A breast spheroid): efficiently surpassed the BM and translocated into many cells
